Source: article PMC7949142, “NAD(H) phosphates mediate tetramer assembly of human C-terminal binding protein (CtBP)” (The Journal of Biological Chemistry, 2021)

What was measured:
Type in all cases: binding
CtBP1 [1] = biological target: T1, CtBP1 (Homo sapiens, UniProt Q13363); test: SEC-MALS tetramer assembly; design: 28–375 (crystal); 28–440 (SEC-MALS)
CtBP2 = biological target: T2, CtBP2 (Homo sapiens, UniProt P56545); test: SEC-MALS tetramer assembly, concentration dependence
T2 construct: 31–445

CtBP1 [2] = biological target: T1, CtBP1; test: as above; design: 28–440

EC50 (CtBP1 [1]) [µM] | EC50 (CtBP2) [µM] | EC50 (CtBP1 [2]) [µM] | SMILES
~66 | – | – | Nc1ncnc2c1ncn2[C@@H]1O[C@H](COP(=O)(O)O)[C@@H](O)[C@H]1O [AMP]
– | ~43 | ~52 | Nc1ncnc2c1ncn2[C@@H]1O[C@H](COP(=O)(O)OP(=O)(O)O)[C@@H](O)[C@H]1O [ADP]
